Source: patent publication US20210338626A1, “METHODS FOR TREATING OR PREVENTING A VIRAL INFECTION OR INHIBITING VIRAL REPLICATION” (Dalcor Pharma UK Ltd., Leatherhead, Zug Branch, priority 2020, published 2021)
Read-outs that look alike come from different tables or passages of the source.

How the values were obtained:
SARS-CoV-2 = SARS-CoV-2 plaque formation in Vero E6 cells; format: cell-based; details: Severe acute respiratory syndrome coronavirus 2, Vero C1008, pre-incubated one hour before addition of virus, read-out: IC50, SARS-CoV-2 plaque formation / viral replication
[1] = parameters: species or system rats; details: rat, in vivo
From the text: (§1) In rats, the percentages of an administered oral dose excreted into the feces as dalcetrapib-ester and dalcetrapib thiol plus dalcetrapib thiol dimer are 41.1% and 17.8%, respectively. The corresponding values following oral administration in monkeys are 11.6% and 22.2%.

[2] = parameters: species or system monkeys; details: monkey, in vivo
From the text: as §1

[3] = parameters: species or system rodents; details: in vivo, po
From the text: as §1

[4] = molecular target: T1, cholesteryl ester transfer protein (Homo sapiens, UniProt P11597); details: cited from earlier work
T1 sequence (P11597 18-493): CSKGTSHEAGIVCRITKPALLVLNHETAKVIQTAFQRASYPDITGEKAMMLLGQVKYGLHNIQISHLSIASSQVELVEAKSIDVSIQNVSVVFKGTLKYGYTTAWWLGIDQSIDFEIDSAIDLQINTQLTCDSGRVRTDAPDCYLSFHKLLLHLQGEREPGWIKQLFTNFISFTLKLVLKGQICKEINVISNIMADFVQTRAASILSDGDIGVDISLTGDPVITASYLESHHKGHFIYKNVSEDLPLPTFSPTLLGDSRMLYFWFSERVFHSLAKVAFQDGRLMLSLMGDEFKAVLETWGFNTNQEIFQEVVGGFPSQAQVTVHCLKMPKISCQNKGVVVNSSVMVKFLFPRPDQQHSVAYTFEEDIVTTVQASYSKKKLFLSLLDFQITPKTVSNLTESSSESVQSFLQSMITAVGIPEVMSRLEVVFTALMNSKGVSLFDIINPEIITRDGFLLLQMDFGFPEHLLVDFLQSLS

[5] = in vivo; cited from earlier work

Row | Compound | IC50 (SARS-CoV-2) [µM] | percentage of administered oral dose excreted into the feces as dalcetrapib thiol plus dalcetrapib thiol dimer [1] [%] | percentage of administered oral dose excreted into the feces as dalcetrapib-ester [1] [%] | percentage of administered oral dose excreted into the feces as dalcetrapib thiol plus dalcetrapib thiol dimer [2] [%] | percentage of administered oral dose excreted into the feces as dalcetrapib-ester [2] [%] | tissue distribution [3] | IC50 ([4]; pre-incubation 1 hour) [µM] | IC50 ([4]; pre-incubation 24 hours) [µM] | safety issues from formation of covalent protein adducts [5]
1 | CCC(CC)CC1(C(=O)Nc2ccccc2S)CCCCC1 [Dalcetrapib thiol] | ~17.8 | – | – | – | – | – | – | – | –
2 | CCC(CC)CC1(C(=O)Nc2ccccc2SC(=O)C(C)C)CCCCC1 [Dalcetrapib] | 17.8 | 17.8 | 41.1 | 22.2 | 11.6 | distributes in all tissues including the lungs and gastrointestinal tract | 1.18 | 0.045 | has not been observed
